Source: patent US11185077B2, “Attractants for rodents” (priority 2016, dated 2021)

What was measured:
house mice, Mus musculus = assay: Laboratory T-tube bioassay: behavioral responses of mice (first choice, time spent); assay type: in vivo; details: female mice
Text: A laboratory experimental apparatus was constructed to test the behavioral responses of mice to the compositions described herein. The experimental design is depicted in FIG. 4 and includes three clear Plexiglas chambers: release chamber (1: 40 cm×20 cm×30 cm for placement of a mouse at the onset of a bioassay), and response chambers (3a and 3b: each 60 cm×30 cm×40 cm) interconnected by a Pyrex glass T-tube (2; stem: 65 cm long, side arms: 45 cm long, all 10 cm in diameter). Each response chamber housed a test stimulus in a Petri dish (4a, 4b; 3 cm diam.). For each replicate, a single mouse was deprived of food, but not water, for 4-6 h before being placed into chamber 1, which was illuminated by dim red light to facilitate observations of the mouse's position. The mouse was allowed to enter the stem of the T-tube (2) on its own accord in response to test stimuli, which were randomly assigned to response chamber 3a or 3b.
Both response chambers were fitted with a Petri dish (4a, 4b) containing a Whatman #1 filter paper disk (25 mm diam.) treated with a randomly assigned treatment stimulus or control stimulus. For each bioassay, a single mouse was tested and the following data were recorded: (1) the treatment or control chamber the mouse entered first with all four paws (“first-choice data”); and (2) the position of the mouse at each of 30 30-sec intervals after its first entry into the T-tube. Position data were then used to calculate the proportion of time a mouse spent in the treatment or control chamber (“time-spent data”).
Following each replicate, the chambers and T-tube were cleaned with a Percept® disinfectant detergent (Virox Technologies Inc. Mississaugua ON L5N 5M4, Canada) and wiped with 70% ethanol.
(§1) First-choice data and the time spent in a trap box quadrant were analyzed using a χ^2 test with Yates' correction for continuity (α=0.05) and the Student's t-test (α=0.05), respectively.
In Experiment 5, the laboratory experimental design of FIG. 4 was used to evaluate the responses of female mice to synthetic androstenone. For Experiment 5, the treatment stimulus consisted of filter paper treated with 4 μg of synthetic androstenone (see Experiments 1 and 2), and the control stimulus consisted of filter paper treated with the 50 μl of ether without androstenone.
In Experiment 6, the laboratory experimental design of FIG. 4 was used to evaluate the responses of male mice to blends of synthetic progesterone and estrogen. For Experiment 6, the treatment stimulus consisted of filter paper treated with a 4-μg blend of the synthetic hormones progesterone and estrogen formulated in 50 μl of ether at a ratio of 100:1 and a control stimulus which consisted of filter paper treated with 50 μl of ether.
In Experiments 9 to 11, the laboratory experimental design of FIG. 4 was used to evaluate the responses of male mice to synthetic progesterone and estrogen. For the Experiments, the treatment stimulus consisted of filter paper treated with a blend of the synthetic progesterone (50 ng) and estrogen (25 ng) (hereinafter “synthetic hormone blend”) (Experiment 9), progesterone alone (75 ng) (Experiment 10) or estrogen alone (75 ng) (Experiment 11) formulated in 50 μl ether. The control stimulus consisted of filter paper treated with 50 μl of ether for each of Experiments 9 to 11.
Experiment 12 used the laboratory experimental apparatus of FIG. 4 to test choices of female mice between filter paper treated with 75 ng of synthetic testosterone (the treatment stimulus) formulated in 50 μl of ether and control filter paper treated with 50 μl of ether. Experiment 13 was identical to Experiment 12 except that the treatment stimulus consisted of filter paper treated with 75 ng of synthetic androstenone.

[1] = tested on: brown rats, Rattus norvegicus; assay: Laboratory arena with two trap boxes: behavioral responses of rats (first entry, time spent); assay type: in vivo
Text: A laboratory experimental apparatus was constructed to test the behavioral responses of rats to the compositions described herein. The experimental design is depicted in FIG. 1 and includes a circular galvanized steel arena (200 cm×60 cm) illuminated from above by a 7.5-W red bulb (Halco Lighting Technologies, Norcross, Ga. 30071, USA) to facilitate observations of the position of the rat within the steel arena. Two metal trap boxes (3a, 3b) (each 25 cm×20 cm×12 cm; T. Eaton & Co. Inc., Twinsburg, Ohio 44087, USA) were placed in opposite quadrants of the arena (1) 10 cm from the wall to serve as harborage. Each box (3a, 3b) was fitted with a Petri dish (3 cm) containing a Whatman #1 filter paper disk (25 mm diam; Sigma-Aldrich Canada Co. Oakville, On L6H 6J8) treated with a randomly assigned treatment or control stimulus. Individual rats were released from a gated mesh and sheet metal box (2) (25 cm×15 cm×15 cm) positioned equidistant to each of the two metal trap boxes (3a, 3b).
For each experimental replicate, a single rat was removed from its “home” cage, and placed into the gated mesh- and sheet-metal container (2). After a 10-min acclimation period, the gate was raised, allowing the rat to leave the box (2) on its own accord and to explore the arena (1) and the trap boxes (3a, 3b).
A rat was classed a responder if it entered a trap box (3a, 3b). For each responding rat, two criteria were recorded and analyzed: 1) the trap box (3a, 3b) it entered first (“first entry”), and 2) the time it spent in the arena quadrants associated with a trap box (“time spent”). The latter data were obtained by recording the rat's position in any one of the four arena quadrants at each of 30 1-min intervals. Following each replicate, the arena and trap boxes were cleaned with a Percept™ disinfectant detergent (Virox Technologies Inc. Mississaugua ON L5N 5M4, Canada) and were wiped with a pet urine odor remover (Nature's Miracle®, Spectrum Brands Inc., Blacksburg, Va. 24060-6671, USA).
as §1
In Experiments 1 and 2, the laboratory experimental design of FIG. 1 was used to evaluate the responses of male and female rats to synthetic androstenone. For Experiments 1 and 2, the treatment stimulus consisted of filter paper sprayed with 2 ml of an aqueous microemulsion containing 4 μg of synthetic androstenone and a control stimulus which consisted of untreated filter paper. The treatment stimulus and control stimulus were placed in the trap boxes (3a, 3b). Experiment 1 tested the response of male rats and Experiment 2 tested the response of female rats.
In Experiments 3 and 4, the laboratory experimental design of FIG. 1 was used to evaluate the responses of male and female rats to synthetic progesterone and estrogen. For Experiments 3 and 4, the treatment stimulus consisted of filter paper impregnated with a 4-μg blend of the synthetic hormones progesterone and estrogen formulated in 50 μl of ether at a ratio of either 100:1 (Experiment 3) or 1000:1 (Experiment 4). The control stimulus in each of Experiments 3 and 4 consisted of filter paper impregnated with 50 μl of ether.
Experiment 14 used the laboratory experimental apparatus of FIG. 1 to test choices of female rats between a treatment stimulus consisting of filter paper treated with 150 ng of synthetic testosterone formulated in 50 μl of ether and a control stimulus consisting of filter paper treated with 50 μl of ether.

[2] = Experiment 5, 4 μg synthetic androstenone
[3] = Experiment 13, 75 ng synthetic androstenone
[4] = Experiment 1, male rats, 4 μg synthetic androstenone
[5] = Experiment 2, female rats, 4 μg synthetic androstenone
[6] = Experiment 12, 75 ng synthetic testosterone
[7] = Experiment 14, female rats, 150 ng synthetic testosterone

SMILES | first entry into baited response chamber vs control chamber (house mice, Mus musculus; [2]) | time spent in response chamber with stimulus vs control chamber (house mice, Mus musculus; [2]) | effect on female mice (house mice, Mus musculus; Experiment 5, 4 μg synthetic androstenone vs 50 μl ether) | first entry into baited chamber vs control chamber (house mice, Mus musculus; [3]) | responses by female mice compared with testosterone (house mice, Mus musculus; [3]) | time spent in baited chamber vs control chamber (house mice, Mus musculus; [3]) | first entry into treatment trap box vs control trap box [1, 4] | time spent in quadrants associated with stimulus vs opposite control quadrants [1, 4] | attractive effect on male rats ([1]; Experiment 1, male rats, 4 μg synthetic androstenone on filter paper vs untreated filter paper) | first entry into treatment trap box vs control trap box [1, 5] | time spent in quadrants associated with treatment stimulus vs opposite control quadrants [1, 5] | attractive effect on female rats ([1]; Experiment 2, female rats, 4 μg synthetic androstenone on filter paper vs untreated filter paper) | first entry into baited chamber vs control chamber (house mice, Mus musculus; [6]) | preference in time spent for the treated chamber over control (house mice, Mus musculus; [6]) | time spent in baited chamber vs control chamber (house mice, Mus musculus; [6]) | effect on female mice (house mice, Mus musculus; Experiment 12, 75 ng synthetic testosterone in 50 μl ether vs ether) | first entry into baited trap box vs control trap box [1, 7] | time spent in arena quadrant of baited trap box vs opposite control quadrant [1, 7] | attractant effect on female rats ([1]; Experiment 14, female rats, 150 ng synthetic testosterone in 50 μl ether vs ether)
C[C@]12CCC(=O)C[C@@H]1CC[C@@H]1[C@@H]2CC[C@]2(C)C=CC[C@@H]12 [androstenone, 5α-androst-16-en-3-one] | as often as | significantly more time | positive effect | as often as | much weaker | slightly more time | as often as | significantly less time | no observed attractive effect | significantly more often | significantly more time | very attractive effect |  |  |  |  |  |  | 
C[C@]12CC[C@H]3[C@@H](CCC4=CC(=O)CC[C@@]43C)[C@@H]1CC[C@@H]2O [testosterone, (8R,9S,10R,13S,14S,17S)-17-hydroxy-10,13-dimethyl-1,2,6,7,8,9,11,12,14,15,16,17-dodecahydrocyclopenta[a]phenanthren-3-one, reference compound] |  |  |  |  |  |  |  |  |  |  |  |  | significantly more often | over threefold preference | significantly more time | very positive effect | significantly more often | significantly more time | very positive attractant effect
